Assay results taken from patent publication US20010046668A1, “Fluorescence polarization method for determining protease activity” (G.D. Searle & Co., priority 1994, published 2001).
No end group written: not given here.

Target: HCMV protease (also known as assemblin) encoded by UL80 (Human cytomegalovirus, UniProt P16753)
Assay: Assemblin fluorescence polarization assay: hydrolysis of biotin/DTAF peptide substrate, quenched with avidin
Format: biochemical, human cytomegalovirus strain AD169
Settings: for Polarization: protease 100 nM, substrate 5 μM final, room temperature, avidin added
Protocol: The construction also encoded six additional histidine residues at the amino terminus of the protease. These additional histidine residues provided an affinity ligand by which it was purified using nickel-nitriloacetic acid-agarose (Qiagen).
The assay was performed in a buffer consisting 10 mM Phosphate buffer, pH 7.4, 20% glycerol, 150 mM sodium acetate, 0.1% CHAPS, 0.1 mM EDTA, 0.05% BSA, 2 mM NaSO3. The pH of the buffer was adjusted to 7.4 before the addition of glycerol.
The purified protease was stored as a 10 μM stock solution in 50/50 (V/V) glycerol/water, 50 μL per vial, and held at −20° C. A positive displacement pipette was used to make the 50 μL aliquots. This stock was diluted with assay buffer to 32 nM. A 100 μL aliquot of this solution was used in the enzyme reaction. A 150 μM substrate stock solution was prepared in assay buffer and stored at 4° C. in the dark. A 20 μM dilute assay stock was prepared by dilution of the 150 μM storage stock. A 5 mg/mL avidin stock solution was made by dissolving avidin (Molecular Probes) in assay buffer and stored in the refrigerator at 4° C. Roundbottom 96-well plate microtiter plates (Black MicroFluor, Dynatec) were pre-blocked with 1.0% BSA in PBS, pH 7.4, and stored at 4° C. The plates were rinsed and dried before use.
An HCMV protease (also known as assemblin) encoded by UL80, in buffer (100 nM) was added in multiple wells to rinsed and dried, pre-blocked microtiter plate. No precautions are taken to stabilize the temperature. Substrate (5 μM final concentration) was added, mixed 5 times, and incubated at room temperature. Avidin (35 μL of 5 mg/mL) was added to one group of wells after 10 minutes, to a second group of wells after 20 minutes and to the remaining wells after thirty minutes, mixed 5 times, and the polarization of the resulting mixture was measured on the FPM2 fluorescence polarimeter. The complete hydrolysis to Ser-Ala-Leu-Arg-Lys(DTAF)-NH2 gave a Pmin value of 32.1 mP.

Chain of HCMV protease (also known as assemblin) encoded by UL80 (P16753 1-256): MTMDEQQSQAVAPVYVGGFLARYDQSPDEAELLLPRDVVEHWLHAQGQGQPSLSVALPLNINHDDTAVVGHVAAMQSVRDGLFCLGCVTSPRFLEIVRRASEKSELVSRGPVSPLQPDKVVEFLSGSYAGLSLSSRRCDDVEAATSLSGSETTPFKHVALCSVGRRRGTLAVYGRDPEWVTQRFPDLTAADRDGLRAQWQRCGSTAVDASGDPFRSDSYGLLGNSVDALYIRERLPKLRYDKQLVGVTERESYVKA

Substance	ΔP = Pmax − P(t) (time 0 min) [mP]	Polarization (time 0 min) [mP]	ΔP = Pmax − P(t) (time 10 min) [mP]	Polarization (time 10 min) [mP]	ΔP = Pmax − P(t) (time 20 min) [mP]	Polarization (time 20 min) [mP]	ΔP = Pmax − P(t) (time 30 min) [mP]	Polarization (time 30 min) [mP]	Pmin value (polarization) (complete hydrolysis of the substrate to the cleaved fluorescent fragment) [mP]
Biotin-γ-Abu-Gly-Val-Val-Asn-Ala-Ser-Ala-Arg-Leu-Lys(DTAF)-NH2 [Example 1]	0.0	214.1	47.0	167.2	77.2	136.9	99.9	114.2	
Ser-Ala-Leu-Arg-Lys(DTAF)-NH2 (SALRK(DTAF)-NH2) [cleaved fluorescent fragment from complete hydrolysis of the assemblin substrate]									32.1
